Experimental data as given in publication PMC9490236, “Accurate de novo design of membrane-traversing macrocycles” (Cell, 2022).
Where a SMILES comes first, the peptide text is derived from it. [ ]: non-standard residue; d: D form. NMeF = CN[C@@H](Cc1ccccc1)C(=O)O; dNMeF = CN[C@H](Cc1ccccc1)C(=O)O; NMeL = CN[C@@H](CC(C)C)C(=O)O; dNMeL = CN[C@H](CC(C)C)C(=O)O; NMeA = CN[C@@H](C)C(=O)O; Nle = CCCC[C@H](N)C(=O)O; dNMeA = CN[C@H](C)C(=O)O

Settings: PAMPA

SMILES: CC[C@@H](C)[C@H]1NC(=O)[C@H](CC(C)C)N(C)C(=O)[C@H]2CCCN2C(=O)[C@H](CC(C)C)NC(=O)[C@H](Cc2ccccc2)N(C)C(=O)CN(C)C(=O)[C@@H](C(C)C)NC(=O)[C@H](C)NC(=O)[C@H]2CCCN2C(=O)[C@@H]2CCCN2C1=O (single isomer, unassigned) [Design D10.58.p2, *GLY *PHE LEU DPRO *LEU DILE PRO DPRO ALA DVAL]
- PAMPA_Papp_Avg: 3.23E-07
- PAMPA_R1: 3.15E-07
- PAMPA_R3: 2.44E-07

SMILES: CC[C@@H](C)[C@H]1NC(=O)[C@H](CC(C)C)N(C)C(=O)[C@H]2CCCN2C(=O)[C@H](CC(C)C)NC(=O)[C@@H](Cc2ccccc2)N(C)C(=O)[C@H](CC(C)C)N(C)C(=O)[C@@H](C(C)C)NC(=O)[C@H](C)NC(=O)[C@H]2CCCN2C(=O)[C@@H]2CCCN2C1=O (single isomer, unassigned) [Design D10.60.p2, *LEU *DPHE LEU DPRO *LEU DILE PRO DPRO ALA DVAL]
- PAMPA_Papp_Avg: 1.17E-06
- PAMPA_R1: 1.49E-06
- PAMPA_R3: 1.62E-06

SMILES: CC[C@@H](C)[C@H]1NC(=O)[C@@H](CC(C)C)N(C)C(=O)[C@@H]2CCCN2C(=O)[C@H]([C@@H](C)CC)NC(=O)[C@H]([C@@H](C)CC)N(C)C(=O)[C@@H](CC(C)C)NC(=O)[C@@H](C(C)C)N(C)C(=O)[C@H]2CCCN2C(=O)[C@@H](C(C)C)NC(=O)[C@@H]2CCCN2C(=O)[C@H]([C@@H](C)CC)NC1=O (single isomer, unassigned) [Design D11.23.p1, DVAL DPRO *DVAL DLEU *ILE ILE PRO *DLEU DILE ILE PRO]
- PAMPA_Papp_Avg: 2.70E-06
- PAMPA_R1: 1.22E-06
- PAMPA_R3: 5.23E-06

SMILES: CC[C@@H](C)[C@H]1NC(=O)[C@@H](CC(C)C)N(C)C(=O)[C@@H]2CCCN2C(=O)[C@H]([C@@H](C)CC)NC(=O)[C@H]([C@@H](C)CC)N(C)C(=O)[C@@H](CC(C)C)NC(=O)[C@@H](C(C)C)N(C)C(=O)[C@H]2CCCN2C(=O)[C@@H](C(C)C)NC(=O)[C@@H]2CCCN2C(=O)[C@H]([C@@H](C)CC)NC1=O (single isomer, unassigned) [Design D11.23.p2, DVAL DPRO *DVAL DLEU *ILE ILE PRO *DLEU DILE ILE PRO]
- PAMPA_Papp_Avg: 9.83E-07
- PAMPA_R1: 1.49E-06
- PAMPA_R3: 4.80E-07

SMILES: CC[C@H](C)[C@@H]1NC(=O)[C@@H](CC(C)C)NC(=O)[C@H](CC(C)C)NC(=O)[C@H]2CCCN2C(=O)[C@@H]2CCCN2C(=O)[C@H]([C@@H](C)CC)NC(=O)[C@@H](CC(C)C)N(C)C(=O)[C@@H](CC(C)C)N(C)C1=O [Design D8.9, ILE *DLEU *DLEU ILE PRO DPRO LEU DLEU] (cyclo(IP[dP]L[dL]I[dNMeL][dNMeL]))
- PAMPA_Papp_Avg: BQL
- PAMPA_R1: BQL
- PAMPA_R3: BQL

SMILES: CC[C@@H](C)[C@H]1NC(=O)[C@H]2CCCN2C(=O)[C@@H]2CCCN2C(=O)[C@H](C(C)C)NC(=O)[C@@H](C(C)C)NC(=O)[C@@H]2CCCN2C(=O)[C@H]2CCCN2C(=O)[C@@H](C)NC1=O [Design D8.11, DALA DPRO PRO DVAL VAL PRO DPRO DILE] (cyclo([dV]VP[dP][dI][dA][dP]P))
- PAMPA_Papp_Avg: BQL
- PAMPA_R1: BQL
- PAMPA_R3: BQL

SMILES: CC[C@H](C)[C@@H]1NC(=O)[C@@H]2CCCN2C(=O)[C@H]2CCCN2C(=O)[C@@H](CC(C)C)NC(=O)[C@@H](CC(C)C)N(C)C(=O)[C@@H]2CCCN2C(=O)[C@H](Cc2ccccc2)N(C)C(=O)[C@@H](Cc2ccc(O)cc2)NC1=O [Design D8.13, PRO ILE DTYR *PHE PRO *DLEU DLEU DPRO] (cyclo(I[dY][NMeF]P[dNMeL][dL][dP]P))
- PAMPA_Papp_Avg: BQL
- PAMPA_R1: BQL
- PAMPA_R3: BQL

SMILES: CC[C@@H](C)[C@H]1NC(=O)[C@@H]2CCCN2C(=O)[C@H]2CCCN2C(=O)[C@@H](CC(C)C)NC(=O)[C@@H](C)N(C)C(=O)[C@H]2CCCN2C(=O)[C@H]2CCCN2C(=O)[C@H](C(C)C)NC1=O [Design D8.24, DPRO PRO DILE VAL DPRO DPRO *DALA DLEU] (cyclo([dI]V[dP][dP][dNMeA][dL][dP]P))
- PAMPA_Papp_Avg: BQL
- PAMPA_R1: BQL
- PAMPA_R3: BQL

SMILES: CCCC[C@@H]1NC(=O)[C@@H]2CCCN2C(=O)[C@@H](C(C)C)NC(=O)[C@@H](C)N(C)C(=O)[C@@H](CC(C)C)NC(=O)[C@@H](CC(C)C)NC(=O)[C@@H]2CCCN2C(=O)[C@H]2CCCN2C1=O [Design D8.29, MET DPRO PRO DLEU DLEU *DALA DVAL PRO] (cyclo([dL][dL][dNMeA][dV]P[Nle][dP]P))
- PAMPA_Papp_Avg: 3.60E-07
- PAMPA_R1: 3.98E-07
- PAMPA_R3: 3.61E-07

SMILES: CC[C@H](C)[C@@H]1NC(=O)[C@@H](C)N(C)C(=O)[C@@H](C)N(C)C(=O)[C@H](C(C)C)NC(=O)[C@H]2CCCN2C(=O)[C@@H]2CCCN2C(=O)[C@H](C(C)C)NC(=O)[C@H]2CCCN2C(=O)[C@@H]2CCCN2C1=O [Design D9.12, PRO DPRO VAL PRO DPRO VAL *DALA *DALA ILE] (cyclo(IP[dP]VP[dP]V[dNMeA][dNMeA]))
- PAMPA_Papp_Avg: BQL
- PAMPA_R1: BQL
- PAMPA_R3: BQL

SMILES: CC(C)C[C@@H]1NC(=O)[C@H]2CCCN2C(=O)[C@@H]2CCCN2C(=O)[C@H](C)N(C)C(=O)[C@@H](C(C)C)NC(=O)[C@H](Cc2ccccc2)NC(=O)[C@H]2CCCN2C(=O)[C@@H]2CCCN2C(=O)[C@@H](CC(C)C)NC1=O [Design D9.20, DLEU PRO DPRO PHE DVAL *ALA PRO DPRO LEU] (cyclo(F[dV][NMeA]P[dP]L[dL]P[dP]))
- PAMPA_Papp_Avg: BQL
- PAMPA_R1: BQL
- PAMPA_R3: BQL

SMILES: CCCC[C@@H]1NC(=O)[C@H](C(C)C)NC(=O)[C@H]2CCCN2C(=O)[C@@H]2CCCN2C(=O)[C@H](C)NC(=O)[C@@H](C)N(C)C(=O)[C@@H](CC(C)C)N(C)C(=O)[C@@H](C(C)C)NC(=O)[C@@H]2CCCN2C1=O [Design D9.21, ALA PRO DPRO VAL MET PRO DVAL *DLEU *DALA] (cyclo(AP[dP]V[Nle]P[dV][dNMeL][dNMeA]))
- PAMPA_Papp_Avg: 2.94E-07
- PAMPA_R1: 2.78E-07
- PAMPA_R3: 3.05E-07

SMILES: CCCC[C@@H]1NC(=O)[C@@H](C)N(C)C(=O)[C@@H]2CCCN2C(=O)[C@@H](CC(C)C)NC(=O)[C@H](CC(C)C)N(C)C(=O)[C@H]2CCCN2C(=O)[C@H](CC(C)C)NC(=O)[C@@H](CC(C)C)NC(=O)[C@@H](C)NC1=O [Design D9.28, DLEU LEU DPRO *LEU DLEU PRO *DALA MET DALA] (cyclo(L[dP][NMeL][dL]P[dNMeA][Nle][dA][dL]))
- PAMPA_Papp_Avg: 1.60E-06
- PAMPA_R1: 1.84E-06
- PAMPA_R3: 1.41E-06

SMILES: CCCC[C@@H]1NC(=O)[C@H]2CCCN2C(=O)[C@@H]2CCCN2C(=O)[C@@H](C)NC(=O)[C@H]2CCCN2C(=O)[C@@H](C(C)C)NC(=O)[C@H](C(C)C)NC(=O)[C@@H](Cc2ccccc2)N(C)C(=O)[C@H](C)N(C)C1=O [Design D9.31, PRO DPRO MET *ALA *DPHE VAL DVAL DPRO DALA] (cyclo([NMeA][dNMeF]V[dV][dP][dA]P[dP][Nle]))
- PAMPA_Papp_Avg: 6.86E-08
- PAMPA_R1: 6.96E-08
- PAMPA_R3: 5.29E-08

SMILES: CC(C)C[C@@H]1NC(=O)[C@H](C(C)C)NC(=O)[C@@H](C)NC(=O)[C@H](C)NC(=O)[C@@H]2CCCN2C(=O)[C@H]2CCCN2C(=O)[C@@H](C)NC(=O)[C@H]2CCCN2C(=O)[C@@H]2CCCN2C1=O [Design D9.34, PRO ALA DALA VAL LEU PRO DPRO DALA DPRO] (cyclo(A[dA]VLP[dP][dA][dP]P))
- PAMPA_Papp_Avg: BQL
- PAMPA_R1: BQL
- PAMPA_R3: BQL
